Read-outs that look alike come from different tables or passages of the source.
How the values were obtained:
[1] = system: acutely dissociated and purified rat OPCs; assay: Acute OL differentiation assay (MBP expression/cell, immunofluorescent image quantification); type: cell-based; details: Rattus norvegicus, sheet "All OLga data"
Method in brief: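 This acute differentiation assay used purified rat OPCs from postnatal day 6–7 pups, seeded into PDL/laminin-coated 96-well plates in differentiation medium lacking PDGF and FGF. Compounds were applied in quadruplicate after a 1–2 h preincubation at 37 °C, 10 % CO2, with 0.1 % DMSO negative and 40 ng/ml T3 positive controls in eight wells. After fixation on DIV4, anti-MBP immunofluorescence images yielded MBP expression/cell.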

[2] = system: expanded OPCs; assay: cells; details: for viability at 0.1 µM / viability at 1 µM / viability at 10 µM: Rattus norvegicus, 72 h; for 0.1 µM (% DMSO) / 1 µM (% DMSO) / 10 µM (% DMSO): alamarBlue viability of expanded OPCs, relative to DMSO control; for 0.1 µM (% DMSO): compound at 0.1 µM; for 1 µM (% DMSO): compound at 1 µM; for 10 µM (% DMSO): compound at 10 µM
Method in brief: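 Toxicity screen: compounds added at 0.1, 1 and 10 µM to PDGF-AA-expanded OPCs in 96-well plates, 3-day incubation at 37 °C, 10% CO2, then alamarBlue 1:10 for 4 h with fluorescence readout. Results set screening doses of 10/2, 2/0.4 or 0.4/0.08 µM.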

[3] = 2 uM test compound, relative to quetiapine, read-out: OL differentiation, 2 uM (% Quet)
[4] = 10 uM test compound, relative to quetiapine, read-out: OL differentiation, 10 uM (% Quet)
[5] = test compound at 2 uM, MBP expression relative to quetiapine, NCC library screen, read-out: 2 uM (% Quet)
[6] = test compound at 10 uM, MBP expression relative to quetiapine, NCC library screen, read-out: 10 uM (% Quet)
[7] = read-out: 0.1 µM (% DMSO), alamarBlue viability of expanded OPCs, compound at 0.1 µM, sheet All Tox data
[8] = read-out: 1 µM (% DMSO), alamarBlue viability of expanded OPCs, compound at 1 µM, sheet All Tox data
[9] = read-out: 10 µM (% DMSO), alamarBlue viability of expanded OPCs, compound at 10 µM, sheet All Tox data
[10] = test compound at 2 uM, NCC library screen, relative to quetiapine, read-out: 2 uM (% Quet)
[11] = test compound at 10 uM, NCC library screen, relative to quetiapine, read-out: 10 uM (% Quet)
[12] = read-out: 0.1 µM (% DMSO), alamarBlue viability, NCC library compound at 0.1 µM, sheet "All Tox data"
[13] = read-out: 1 µM (% DMSO), alamarBlue viability, NCC library compound at 1 µM, sheet "All Tox data"
[14] = read-out: 10 µM (% DMSO), alamarBlue viability, NCC library compound at 10 µM, sheet "All Tox data"
[15] = 0.4 uM test compound, relative to quetiapine, read-out: OL differentiation, 0.4 uM (% Quet)

| Compound | activation at 2 µM [1, 3] [%] | activation at 10 µM [1, 4] [%] | viability at 0.1 µM [2, 7] [%] | viability at 1 µM [2, 8] [%] | viability at 10 µM [2, 9] [%] | also measured |
| --- | --- | --- | --- | --- | --- | --- |
| Nc1ccn([C@@H]2CS[C@H](CO)O2)c(=O)n1 [Lamivudine] | -2.4 | -27.9 | 87.3 | 96 | 113 | activation at 2 µM [1, 5]: 2.9%; activation at 10 µM [1, 6]: -9.8%; 0.1 µM (% DMSO) [2]: 94.3 % DMSO; 1 µM (% DMSO) [2]: 88.1 % DMSO; 10 µM (% DMSO) [2]: 79.4 % DMSO |
| Nc1nnc(-c2cccc(Cl)c2Cl)c(N)n1 [Lamotrigine] | -14.6 | -8.7 | 94.8 | 104 | 99.5 |  |
| Cc1c(OCC(F)(F)F)ccnc1C[S+]([O-])c1nc2ccccc2[nH]1 (stereo not drawn) [Lansoprazole] |  |  |  |  |  | activation at 2 µM [1, 10]: -3.1%; activation at 10 µM [1, 11]: -72%; viability at 0.1 µM [2, 12]: 94.2%; viability at 1 µM [2, 13]: 86.3%; viability at 10 µM [2, 14]: 99.9% |
| CC(C)OC(=O)CCC/C=C\C[C@@H]1[C@@H](CC[C@@H](O)CCc2ccccc2)[C@H](O)C[C@@H]1O [Latanoprost] | -37.3 | -143 | 85.2 | 91.5 | 81.4 |  |
| C#C[C@]1(O)CC[C@H]2[C@@H]3CCC4=CC(=O)CC[C@@H]4[C@H]3CC[C@@]21CC [Levonorgestrel] | 7.5 | -8.6 | 97.5 | 88 | 91.5 |  |
| CN1CC[C@]23CCCC[C@H]2[C@H]1Cc1ccc(O)cc13 [Levorphanol] | -6.9 | 17 | 77.4 | 83.4 | 74 |  |
| CCN(CC)CC(=O)Nc1c(C)cccc1C [Lidocaine] | -0.03 | 17.6 | 84.8 | 86 | 85.5 |  |
| CCC[C@@H]1C[C@@H](C(=O)N[C@@H]([C@H]2O[C@H](SC)[C@H](O)[C@@H](O)[C@H]2O)[C@@H](C)O)N(C)C1 [Lincomycin] |  |  |  |  |  | activation at 2 µM [1, 5]: 12.6%; activation at 10 µM [1, 6]: -2.9%; 0.1 µM (% DMSO) [2]: 93.6 % DMSO; 1 µM (% DMSO) [2]: 94.1 % DMSO; 10 µM (% DMSO) [2]: 87.7 % DMSO |
| O=C1N(c2ccccc2)c2ccccc2C1(Cc1ccncc1)Cc1ccncc1 [Linopirdine] |  |  |  |  |  | activation at 2 µM [1, 10]: -7.9%; activation at 10 µM [1, 11]: -12.7%; viability at 0.1 µM [2, 12]: 90.7%; viability at 1 µM [2, 13]: 94.5%; viability at 10 µM [2, 14]: 86.2% |
| CN1[C@@H](CC(=O)c2ccccc2)CCC[C@H]1C[C@H](O)c1ccccc1 [Lobeline] | -5 | 0.65 |  |  |  | viability at 0.1 µM [2, 12]: 96.9%; viability at 1 µM [2, 13]: 89.9%; viability at 10 µM [2, 14]: 64.3% |
| CN(CCCN1c2ccccc2CCc2ccccc21)CC(=O)c1ccc(Cl)cc1 [Lofepramine] | -3.7 |  | 97.9 | 79.6 | 47.1 | activation at 0.4 µM [1, 15]: 1.3% |
| COc1ccc(CN2CCN(C(c3ccc(F)cc3)c3ccc(F)cc3)CC2)c(OC)c1OC [Lomerizine] | -3.9 |  |  |  |  | activation at 0.4 µM [1, 15]: 0.09%; viability at 0.1 µM [2, 12]: 92.5%; viability at 1 µM [2, 13]: 58.5%; viability at 10 µM [2, 14]: 11% |
| CN(C)C(=O)C(CCN1CCC(O)(c2ccc(Cl)cc2)CC1)(c1ccccc1)c1ccccc1 [Loperamide] |  |  |  |  |  | activation at 0.08 µM ([1]; test compound at 0.08 uM, NCC library screen, relative to quetiapine, read-out: 0.08 uM (% Quet)): -0.19%; activation at 0.4 µM ([1]; test compound at 0.4 uM, NCC library screen, relative to quetiapine, read-out: 0.4 uM (% Quet)): -17.5%; 0.1 µM (% DMSO) [2]: 70.2 % DMSO; 1 µM (% DMSO) [2]: 40.0 % DMSO; 10 µM (% DMSO) [2]: 11.4 % DMSO |
| CCOC(=O)N1CCC(=C2c3ccc(Cl)cc3CCc3cccnc32)CC1 [Loratadine] | -36.8 |  | 90.8 | 77.7 | 13.9 | activation at 0.4 µM [1, 15]: 5.6% |
